According to US20120122765A1, “COMPOUNDS AND RELATED METHODS FOR MANIPULATING PARP-1-DEPENDENT CELL DEATH” (priority 2010, published 2012):
Like-named read-outs stand apart in the source and are kept apart here.

Key:
isolated mitochondria = assay: AIF binding to isolated mitochondria
Protocol: One commonly accepted estimate is that approximately 20%-30% of AIF resides on the cytosolic side of the outer membrane of mitochondria, where it is poised to be rapidly released by PAR following PARP-1 activation. Applicants thus wanted to perform tests of AIF binding to mitochondria determine how readily purified WT-AIF and Pbm-AIF bind to mitochondria in a time- and concentration-dependent manner. Specifically, recombinant WT-AIF (2.5 ng/μl) and Pbm-AIF (2.5 ng/μl) were incubated with isolated mitochondria (200 μg/ml) for 1 minute, 5 minutes, 10 minutes, 15 minutes, 20 minutes or 30 minutes. […] The results of this portion of the experiment is provided by the graph of FIG. 15B.
To investigate the mechanism underlying mitochondrial AIF release following PARP-1 activation, Applicants incubated isolated mitochondria with purified non-tagged forms of AIF in the presence or absence of PAR and followed this by centrifugation to remove the mitochondria. Detection of AIF remaining in the supernatant was thereafter performed through immunoblot analysis.
The supernatant collected in the experiments of Example 16 were also analyzed for the presence of Tom20 and cyclochrome c.

PAR [1] = assay: nitrocellulose saturation binding experiments
Excerpt: (§1) Applicants thereafter repeated the experiments using both wild type and mutant AIFm peptides spanning only amino acids 567-592 instead of full length AIFm and obtained results consistent with those using full-length AIF. […] The double amino acid mutant Dm (corresponding to only amino acids 567-592 of AIF-Dm so as to consist of SEQ. ID NO. 16) bound PAR. […] Thus, it is preferred in embodiments of the invention when conducting genetic manipulations to convert at least three target basic amino acids in the PBM to hydrophobic amino acids.
The PAR polymer binding properties of the mutant Pbm-AIF was then measured using full-length recombinant His-WT-AIF and His tagged Pbm-AIF (“His-Pbm-AIF”) via a series of nitrocellulose saturation binding experiments. Similar experiments were also conducted for the shorter peptides Dm and Tm in comparison to WT. FIG. 10B through FIG. 10D comprise charts reporting data from these various experiments. With regard to the shorter peptides, Applicants determined that the binding affinity constant (“Kd”) and maximum binding capacity (“Bmax”) of these AIF mimetic peptides and the results are reported in the chart of FIG. 10B. […] FIG. 10D comprises a Scatchard plot (95% confidence interval) of the results.

PAR [2] = assay: dot-blot assay of AIF peptides with 32P-labeled PAR; assay type: binding; details: for binding to 32P-labeled automodified PARP-1 or 32P-labeled purified PAR: peptides spanning only amino acids 567-592; for binding to PAR: peptides, 100 nM purified 32P-labeled PAR
Protocol: To determine whether these putative binding sites are in fact responsible for AIF binding to PAR, Applicants performed a dot-blot assay with peptides corresponding to these motifs in the presence of 100 nM purified ^32P-labeled PAR. FIG. 5 comprises black and white photos of representative dot-blot assay for full length WT-AIF, three AIF peptides formed from identified portions of AIFm, histone H3, and BSA in presence of 100 nM purified ^32P-labeled PAR.
as §1

DNA = DNA retardation assay; assay type: binding; details: DNA (200 ng), 30 minutes
Protocol: AIF binding-mediated DNA mobility retardation was performed as described by H. Cande et al. (Nat Struct Biol, 2002). Recombinant His-tagged AIF (10 μg or 25 μg) was incubated with 1 kb DNA molecular weight marker (obtained from Fermentas) for 30 minutes at room temperature and loaded on 2.5% agarose gel prestained with ethidium bromide (1 μg/ml). Mobility shift was visualized under the Alpha Innotech UV illuminator.
Further, a DNA retardation assay of His-WT-AIF and His-Pbm-AIF was conducted by incubating both with DNA (200 ng) for 30 minutes, using BSA as a negative control.

[3] = PAR binding, saturation binding
[4] = PAR binding, saturation binding, ligand binding program of Sigma plot, read-out: Kd

Which “release of endogenous cytochrome c from mitochondria” value (isolated mitochondria; 5 nM and 50 nM PAR) does the source give for “Poly(ADP-ribose) [PAR, reference compound]” here?
Its value is “failed to induce the release of endogenous cytochrome c”.

What about the “release of endogenous cytochrome c from mitochondria” value (isolated mitochondria; 100 nM PAR) of the same molecule?
Its value is “a weak cytochrome c signal could be detected”.

What about the “Tom20 in the supernatant (mitochondrial integrity)” value (isolated mitochondria; any concentration of PAR used) of the same molecule?
The value was “could not be detected in the supernatant”.

What does the source list for “amino acids 567-592 of AIF-Dm, SEQ. ID NO. 16 LRDKVVVGIVLWNVFNRMPIAAAIIK (mouse) [Dm peptide]”?
Bmax (PAR [1]; [3]): 3.97 pmol; Kd (PAR [1]; [4]): 3300 nM; binding to 32P-labeled automodified PARP-1 or 32P-labeled purified PAR (PAR [2]): bound PAR

Which Bmax (PAR [1]; [3]) does the source give for “amino acids 567-592 of AIF-Tm, SEQ. ID NO. 17 LRDKVVVGIVLWNVFNRMPIAAAIIA (mouse) [Tm peptide]” here?
Its Bmax is 1.77 pmol.

And the Kd (PAR [1]; [4])?
The Kd was 107000 nM.

And the “PAR binding in saturation binding experiments” value (PAR [1]; result in words)?
Its value is “clearly reduced PAR binding”.

What about the “binding to 32P-labeled automodified PARP-1 or 32P-labeled purified PAR” value (PAR [2]) of the same molecule?
The value was “failed to bind”.

“peptide composed of AIFm amino acids 222-244: peptide of mouse AIF amino acids 222-244, SEQ. ID NO. 1 (GGVAVLTGKKVVHLDVRGNMVKL; mouse)” was tested. Which “binding to PAR” value (PAR [2]) did it give?
The value was “bound less well”.

How did the “binding to PAR” value (PAR [2]) turn out when “peptide composed of AIFm amino acids 441-463: peptide of mouse AIF amino acids 441-463, SEQ. ID NO. 5 (FYDIKLGRRRVEHHDHAVVSGRL; mouse)” was run?
Its value is “failed to bind PAR appreciably”.

For “peptide of amino acids 567-592 of mouse AIF, SEQ. ID NO. 10 LRDKVVVGIVLWNVFNRMPIARKIIK (mouse) [WT peptide]”, which Bmax (PAR [1]; [3]) is on record?
The Bmax was 4.57 pmol.

What about the Bmax (PAR [1]; PAR binding, saturation binding, listed as AIFm567-592 peptide) of the same molecule?
Its Bmax is 4.55 pmol.

B1: His-WT-AIF: full-length recombinant His-tagged wild type mouse AIF (protein)
chain: MFRCGGLAGAFKQKLVPLVRTVYVQRPKQRNRLPGNLFQQWRVPLELQMARQMASSGSSGGKMDNSVLVLIVGLSTIGAGAYAYKTIKEDQKRYNERVMGLGLSPEEKQRRAIASATEGGSVPQIRAPSHVPFLLIGGGTAAFAAARSIRARDPGARVLIVSEDPELPYMRPPLSKELWFSDDPNVTKTLQFRQWNGKERSIYFQPPSFYVSAQDLPNIENGGVAVLTGKKVVHLDVRGNMVKLNDGSQITFEKCLIATGGTPRSLSAIDRAGAEVKSRTTLFRKIGDFRALEKISREVKSITVIGGGFLGSELACALGRKSQASGIEVIQLFPEKGNMGKILPQYLSNWTMEKVKREGVKVMPNAIVQSVGVSGGRLLIKLKDGRKVETDHIVTAVGLEPNVELAKTGGLEIDSDFGGFRVNAELQARSNIWVAGDAACFYDIKLGRRRVEHHDHAVVSGRLAGENMTGAAKPYWHQSMFWSDLGPDVGYEAIGLVDSSLPTVGVFAKATAQDNPKSATEQSGTGIRSESETESEASEITIPPSAPAVPQVPVEGEDYGKGVIFYLRDKVVVGIVLWNVFNRMPIARKIIKDGEQHEDLNEVAKLFNIHED
modifications: left off: small tags and cut ends
Which DNA-binding properties (DNA) does the source give for B1 here?
Its DNA-binding properties is “comparable”.

And the Bmax (PAR [1]; [3])?
Its Bmax is 200.83 pmol.

And the Kd (PAR [1]; [4])?
The Kd was 100 nM.

And the Bmax (PAR [1]; specific binding (His-Pbm-AIF values subtracted), Scatchard analysis)?
Its Bmax is 116.208 pmol.

And the Kd (PAR [1]; specific binding (His-Pbm-AIF values subtracted), Scatchard analysis, read-out: calculated Kd)?
The Kd was 66.3 nM.
